{"source": "patent US20060282132A1", "about": "“Photodynamic therapy equipment, method for controlling photodynamic therapy equipment and method of photodynamic method” (KEIO UNIVERSITY, priority 2003, published 2006)", "key": {"[1]": {"details": "concentration 6 μg/ml"}, "[2]": {"tested_on": "mouse derived macrophage like cell J774.1", "description": "With regard to arteriosclerotic athero model, mouse derived macrophage like cell J774.1 was used. PDT was performed after contacting with the second generation photosensitive substance ATX-S10 (ATX-S10 Na(II) (K.K. Hikari Chemical Lab.)) with good excretion, concentration of 6 μg/ml for 24 hours.\nIrradiation of the light was performed with the light source: excimer dye laser (EDL-1, Hamamatsu Photonix Co., wavelength 670 nm, pulse width 10 ns); pulse energy density 1.2 to 9.5 mJ/cm^2 (corresponding to peak intensity […]); and repetition frequency 5 to 80 Hz. PDT effect as evaluated by a rate of cell death using MTT after performing for 24 hours.\nMeasurement was performed in concentration of administered photosensitive substance at 25 μg/ml and 50 μg/ml."}}, "data": [{"smiles": "C=Cc1c(C)c2cc3nc(cc4[nH]c(cc5nc(cc1[nH]2)C(C)=C5CCC(=O)NC(CC(=O)[O-])C(=O)[O-])c(CCC(=O)NC(CC(=O)[O-])C(=O)[O-])c4C)C(C)(O)/C3=C\\C=NO.[Na+].[Na+].[Na+].[Na+]", "note": "(stereo not shown) [ATX-S10, Iminochlorin aspartic acid derivative]", "values": [{"measurement": "changes of absorption (bleaching) with changing irradiation energy density", "setting": "[1]", "value": "depends on total irradiation energy (J/cm^2) and not on peak intensity"}, {"measurement": "PDT effect (rate of cell death)", "setting": "[2]; 6 μg/ml for 24 hours, excimer dye laser 670 nm, pulse width 10 ns, high pulse energy density (high peak intensity), repetition frequency 5 to 80 Hz, MTT after 24 hours", "value": "PDT effect almost disappeared"}, {"measurement": "rate of cell death at maximum", "setting": "[2]; 6 μg/ml for 24 hours, excimer dye laser 670 nm, pulse width 10 ns, low pulse energy density (low peak intensity), repetition frequency 5 to 80 Hz, MTT after 24 hours", "value": "≤ 70", "unit": "%"}, {"measurement": "rate of cell death with changing irradiation energy density", "setting": "[2]; 25 μg/ml and 50 μg/ml, same irradiation energy density", "value": "rate of cell death is different, if the concentration of photosensitive substance is different"}]}]}
